Measurements reported in article PMC12472512, “Design, Synthesis, In Silico Docking, Multitarget Bioevaluation and Molecular Dynamic Simulation of Novel Pyrazolo[3,4-d]Pyrimidinone Derivatives as Potential In Vitro and In Vivo Anti-Inflammatory Agents” (Pharmaceuticals, 2025).
“Also recorded” adds a separate entry of the source. Values belong to the compound of their own block, whether it stands above or below them.

Experiments:
[1] = system: carrageenan-induced paw edema; test: In vivo carrageenan-induced paw edema; conditions: 50 mg/kg oral, mice
[2] = system: gastric mucosa; test: Histopathological examination of stomach sections (H&E)
[3] = biological target: T1, human recombinant COX-2 (Homo sapiens, UniProt P35354); test: In vitro COX-2 inhibition, fluorescent inhibitor screening assay kit; conditions: for inhibitory activity on COX-2: at a concentration of 100 μM
T1 sequence (P35354 18-604): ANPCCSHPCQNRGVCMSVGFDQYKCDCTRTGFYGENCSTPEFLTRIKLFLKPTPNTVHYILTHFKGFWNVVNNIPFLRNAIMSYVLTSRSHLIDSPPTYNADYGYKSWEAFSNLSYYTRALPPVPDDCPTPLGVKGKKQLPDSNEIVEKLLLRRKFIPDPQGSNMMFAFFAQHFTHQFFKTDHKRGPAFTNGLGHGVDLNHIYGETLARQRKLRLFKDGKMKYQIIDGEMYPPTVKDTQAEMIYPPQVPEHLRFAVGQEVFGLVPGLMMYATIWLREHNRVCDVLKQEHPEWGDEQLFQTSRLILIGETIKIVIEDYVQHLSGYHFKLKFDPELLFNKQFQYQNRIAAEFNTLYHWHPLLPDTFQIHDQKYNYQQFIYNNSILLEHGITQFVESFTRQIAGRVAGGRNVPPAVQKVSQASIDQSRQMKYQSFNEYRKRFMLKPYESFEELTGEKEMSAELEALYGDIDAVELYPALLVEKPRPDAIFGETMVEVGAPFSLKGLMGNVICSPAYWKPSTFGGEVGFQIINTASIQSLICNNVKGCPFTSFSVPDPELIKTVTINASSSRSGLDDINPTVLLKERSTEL
Protocol: (§2) Test compounds, dissolved in DMSO, and were pre-incubated with the enzymes at 37 °C for 5 min before initiating the reaction with 1 mM arachidonic acid under light-protected conditions. The fluorescence was measured using a multi-well spectrophotometer (fluorescence plate reader). […] The percentage inhibition was calculated by comparing the absorbance values of the compounds to the vehicle control.
(§3) This protocol utilizes a colorimetric assay to measure the peroxidase activity of Prostaglandin G/H
(§4) Synthase (COX enzyme). The COX enzyme converts Arachidonic Acid (AA) to Prostaglandin G2
(§5) (PGG2), which is then reduced to Prostaglandin H2 (PGH2) by the inherent peroxidase activity.
(§6) peroxidase reaction co-oxidizes a chromogen, such as N,N,N',N'-Tetramethyl-p-phenylenediamine
(§7) (TMPD), resulting in a colored product that can be measured spectrophotometrically at 590-630 nm.
(§8) inhibition of COX enzyme by a test compound reduces the formation of this colored product, allowing
(§9) for the calculation of percentage inhibition and subsequent IC50 values.
(§10) o Ovine COX-1 (purified, commercially available)
(§11) • Substrate: Arachidonic Acid (AA). Prepare a stock solution in ethanol. Note: AA is unstable;
(§12) aliquot and store under inert gas (e.g., Argon) at -80°C.
(§13) • Cofactor: Hemin. Prepare a stock solution in DMSO.
(§14) • Chromogen: N,N,N',N'-Tetramethyl-p-phenylenediamine (TMPD) dihydrochloride.
(§15) • Assay Buffer: 100 mM Tris-HCl buffer, pH 8.0. May contain 1-5 mM EDTA and 1-2 µM
Phenol (acts as a cofactor for COX-2).
(§16) • Solvents: Dimethyl Sulfoxide (DMSO), Ethanol (absolute).
(§17) consistent across all wells (typically ≤1% final concentration).
o Keep all dilutions on ice.
(§18) o COX-1 Working Solution: Dilute ovine COX-1 in ice-cold assay buffer to a final
(§19) concentration of ~50-100 U/mL. Add Hemin to a final concentration of 1 µM.
(§20) o Note: The exact enzyme units (U) required must be determined by a preliminary activity
(§21) test to ensure the reaction is linear and within the dynamic range of the assay.
(§22) Substrate/Chromogen Solution (Prepare Fresh):
(§23) o To a tube containing assay buffer, add TMPD to a final concentration of 0.2-0.5 mM.
(§24) o Add Arachidonic Acid to a final concentration of 100 µM. Vortex gently.
(§25) o Keep this solution protected from light and on ice until use.
(§26) Assay Setup (Performed in duplicate or triplicate)

[4] = biological target: T2, COX-1 (Ovis aries, UniProt P05979); test: In vitro COX-1 inhibition, fluorescent inhibitor screening assay kit; conditions: for inhibitory activity on COX-1: at a concentration of 100 μM
T2 sequence (P05979 25-600): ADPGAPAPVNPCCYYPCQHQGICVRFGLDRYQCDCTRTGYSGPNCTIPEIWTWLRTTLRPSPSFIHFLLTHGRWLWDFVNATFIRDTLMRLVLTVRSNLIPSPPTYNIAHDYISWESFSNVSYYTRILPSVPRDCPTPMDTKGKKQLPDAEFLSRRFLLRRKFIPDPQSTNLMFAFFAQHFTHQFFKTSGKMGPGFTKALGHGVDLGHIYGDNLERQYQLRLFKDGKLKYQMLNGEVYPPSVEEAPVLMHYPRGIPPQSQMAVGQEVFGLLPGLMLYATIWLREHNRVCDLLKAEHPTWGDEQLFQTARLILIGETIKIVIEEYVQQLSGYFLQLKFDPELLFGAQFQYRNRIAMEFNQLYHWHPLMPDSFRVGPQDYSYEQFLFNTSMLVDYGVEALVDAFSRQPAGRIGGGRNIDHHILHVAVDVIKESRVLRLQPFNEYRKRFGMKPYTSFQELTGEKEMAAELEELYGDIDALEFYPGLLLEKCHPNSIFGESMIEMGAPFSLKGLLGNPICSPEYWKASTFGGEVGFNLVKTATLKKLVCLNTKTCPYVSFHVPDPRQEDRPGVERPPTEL
Protocol: as §2, §3, §4, §5, §6, §7, §8, §9, §10, §11, §12, §13, §14, §15
Phenol (acts as a cofactor for COX-2).
as §16, §17
o Keep all dilutions on ice.
as §18, §19, §20, §21, §22, §23, §24, §25, §26

[5] = system: TNF-α; test: ELISA of serum TNF-α in carrageenan-treated mice; type: in vivo; conditions: 50 mg/kg; carrageenan-treated mice at 3 h; compared to the control group
Protocol: To evaluate the anti-inflammatory mechanisms of these compounds, two key chemical mediators, TNF-α and IL-6, were assessed using enzyme-linked immunosorbent assay (ELISA).
(§1) All mice were sacrificed under anesthesia using ketamine/xylazine (50/15 mg/kg). Blood was collected for the ELISA assays to determine the levels of cytokines TNF-α and IL-6 using the Rat IL6 (Interleukin 6) ELISA Kit and Rat TNFα ELISA Kit (MyBioSource, San Diego, CA, USA), in accordance with the manufacturer’s instructions. The quantitative sandwich enzyme immunoassay technique is the fundamental principle of the TNF-α assay. A microplate was pre-coated with an antibody specific for TNF-α. Standards and samples were pipetted into the wells, and the immobilized antibody bound to any TNF-α that was present. A biotin-conjugated antibody that was specific for TNF-α was introduced to the wells after any unbound substances were removed. Horseradish peroxidase (HRP) conjugated with avidin was introduced to the wells subsequent to the cleaning process. After a wash to eliminate any unbound avidin–enzyme reagent, a substrate solution was introduced to the wells, and the color developed in proportion to the quantity of TNF-α bound in the initial step. The color development was halted, and the color intensity was quantified. Additionally, the Sandwich enzyme immunoassay is the test principle utilized for IL-6. The microtiter plates included in this preparation were pre-coated with an antibody that was specific to Rat IL6. A biotin-conjugated antibody specific to Rat IL6 was then added to the appropriate microtiter plate wells along with standards or samples. Subsequently, each microplate well was incubated with avidin conjugated to horseradish peroxidase (HRP). […] The addition of sulfuric acid solution terminated the enzyme–substrate reaction, and the color change was observed spectrophotometrically at a wavelength of 450 nm ± 10 nm. The concentration of Rat IL6 in the samples was subsequently determined by comparing the OD of the samples to the standard curve.
Blood was collected immediately following the decapitation of mice, performed in accordance with the institutional animal care and use committee (IACUC) guidelines. After decapitation, whole blood was allowed to flow freely and was collected directly into EDTA and heparinized tubes. The whole blood was centrifuged at 3000× g for 10 min at 4 °C, and the plasma was carefully collected and stored at –80 °C until further analysis.

[6] = system: IL-6; test: ELISA of serum IL-6 in carrageenan-treated mice; type: in vivo; conditions: 50 mg/kg; carrageenan-treated mice at 3 h
Protocol: Therefore, the anti-inflammatory activity of the tested compounds may hinge on their ability to suppress the pro-inflammatory TNF-α and IL-6 levels.
as §1, with “curve. […]” for “curve.”

[7] = stomach sections stained with H&E, 50 mg/kg

inhibitory activity on COX-2 [3]: no inhibitory activity | inhibitory activity on COX-1 [4]: no inhibitory activity
Structure (SMILES): O=C(Cn1cnc2c(cnn2-c2ccccc2)c1=O)Nc1ccccc1 [Compound 5a, 2-(4-Oxo-1-Phenyl-1,4-Dihydro-5H-Pyrazolo[3,4-d]Pyrimidin-5-yl)-N-Phenyl Acetamide]

inhibitory activity on COX-2 [3]: no inhibitory activity | inhibitory activity on COX-1 [4]: no inhibitory activity
Structure (SMILES): O=C(Cn1cnc2c(cnn2-c2ccccc2)c1=O)Nc1ccc(Cl)cc1 [Compound 5b, N-(4-Chlorophenyl)-2-(4-Oxo-1-Phenyl-1,4-Dihydro-5H-Pyrazolo[3,4-d]Pyrimidin-5-yl) Acetamide]

IC50 [3]: > 100000 nM | inhibitory activity on COX-2 [3]: no inhibitory activity | inhibitory activity on COX-1 [4]: no inhibitory activity
Structure (SMILES): O=C(Cn1cnc2c(cnn2-c2ccccc2)c1=O)Nc1ccc(Br)cc1 [Compound 5c, N-(4-Bromophenyl)-2-(4-Oxo-1-Phenyl-1,4-Dihydro-5H-Pyrazolo[3,4-d]Pyrimidin-5-yl) Acetamide]

IC50 [3]: 490 ± 17 nM | SI, in vitro COX-2 selectivity index (COX-1 IC50/COX-2 IC50) [3]: 28.73 | COX2 %inh ([3]; conc 0.01 (uM)): -402% | COX2 %inh ([3]; conc 0.1 (uM)): -301% | COX2 %inh ([3]; conc 1 (uM)): -167% | COX2 %inh ([3]; conc 10 (uM)): -15% | COX2 %inh ([3]; conc 100 (uM)): 76.6% | IC50 [4]: 14.1 ± 0.47 µM | COX1 %inh ([4]; conc 0.01 (uM)): 0.25% | COX1 %inh ([4]; conc 0.1 (uM)): 1.77% | COX1 %inh ([4]; conc 1 (uM)): 8.07% | COX1 %inh ([4]; conc 10 (uM)): 49.5% | COX1 %inh ([4]; conc 100 (uM)): 76%
Structure (SMILES): O=C(Cn1cnc2c(cnn2-c2ccccc2)c1=O)Nc1ccc([N+](=O)[O-])cc1 [Compound 5d, N-(4-Nitrophenyl)-2-(4-oxo-1-phenyl-1,4-dihydro-5H-pyrazolo[3,4-d]pyrimidin-5-yl) Acetamide]
Percentage of inhibition of carrageenan-induced paw edema ([1]; 1 h): 3.43% | Percentage of inhibition of carrageenan-induced paw edema ([1]; 2 h): 21.26% | Percentage of inhibition of carrageenan-induced paw edema ([1]; 3 h): 27.32% | histological structure of the gastric mucosa ([2]; stomach sections stained with H&E; 50 mg/kg): normal histological structure of the gastric mucosa | TNF-α levels in serum [5]: No significant differences

IC50 [3]: 398 ± 14 nM | SI, in vitro COX-2 selectivity index (COX-1 IC50/COX-2 IC50) [3]: 16.09 | COX2 %inh ([3]; conc 0.01 (uM)): -425% | COX2 %inh ([3]; conc 0.1 (uM)): -285% | COX2 %inh ([3]; conc 1 (uM)): -103% | COX2 %inh ([3]; conc 10 (uM)): 9.91% | COX2 %inh ([3]; conc 100 (uM)): 54.8% | IC50 [4]: 6.4 ± 0.22 µM | COX1 %inh ([4]; conc 0.01 (uM)): 1.32% | COX1 %inh ([4]; conc 0.1 (uM)): 7.85% | COX1 %inh ([4]; conc 1 (uM)): 19.2% | COX1 %inh ([4]; conc 10 (uM)): 57.9% | COX1 %inh ([4]; conc 100 (uM)): 80.1%
Structure (SMILES): O=C(Cn1cnc2c(cnn2-c2ccccc2)c1=O)Nc1ccc2ccccc2c1 [Compound 5j, N-(Naphthalen-2-yl)-2-(4-Oxo-1-Phenyl-1,4-Dihydro-5H-Pyrazolo[3,4-d]Pyrimidin-5-yl) Acetamide]
Percentage of inhibition of carrageenan-induced paw edema ([1]; 1 h): 28.35% | Percentage of inhibition of carrageenan-induced paw edema ([1]; 2 h): 50.13% | Percentage of inhibition of carrageenan-induced paw edema ([1]; 3 h, 50 mg/kg): 62.41% | histological structure of the gastric mucosa [2, 7]: preserved gastric tissue integrity; also recorded: intact gastric tissue; also recorded: normal histological structure of the gastric mucosa | IL-6 levels in serum [6]: significantly reduced; also recorded: highest inhibition of IL-6 levels, approaching normal levels | TNF-α levels in serum [5]: significantly reduced

inhibitory activity on COX-2 [3]: no inhibitory activity | inhibitory activity on COX-1 [4]: no inhibitory activity
Structure (SMILES): CC(=O)c1ccc(NC(=O)Cn2cnc3c(cnn3-c3ccccc3)c2=O)cc1 [Compound 5l, N-(4-Acetylphenyl)-2-(4-Oxo-1-Phenyl-1,4-Dihydro-5H-Pyrazolo[3,4-d]Pyrimidin-5-yl) Acetamide]

Second part, the compound before the results:

Structure (SMILES): Cc1ccc(-c2cc(C(F)(F)F)nn2-c2ccc(S(N)(=O)=O)cc2)cc1 [Celecoxib, celecoxib, reference compound]
Percentage of inhibition of carrageenan-induced paw edema ([1]; 1 h): 0.31% | Percentage of inhibition of carrageenan-induced paw edema ([1]; 2 h): 44.88% | Percentage of inhibition of carrageenan-induced paw edema ([1]; 3 h): 56.14% | histological structure of the gastric mucosa [2, 7]: normal gastric mucosal histology; also recorded: normal histological structure of the gastric mucosa

Structure (SMILES): Cc1ccccc1NC(=O)Cn1cnc2c(cnn2-c2ccccc2)c1=O [Compound 5e, 2-(4-Oxo-1-Phenyl-1,4-Dihydro-5H-Pyrazolo[3,4-d]Pyrimidin-5-yl)-N-(o-Tolyl) Acetamide]
inhibitory activity on COX-2 [3]: no inhibitory activity | inhibitory activity on COX-1 [4]: no inhibitory activity

Structure (SMILES): Cc1cccc(NC(=O)Cn2cnc3c(cnn3-c3ccccc3)c2=O)c1 [Compound 5f, 2-(4-Oxo-1-Phenyl-1,4-Dihydro-5H-Pyrazolo[3,4-d]Pyrimidin-5-yl)-N-(m-Tolyl) Acetamide]
inhibitory activity on COX-2 [3]: no inhibitory activity | inhibitory activity on COX-1 [4]: no inhibitory activity

Structure (SMILES): Cc1ccc(NC(=O)Cn2cnc3c(cnn3-c3ccccc3)c2=O)cc1 [Compound 5g, 2-(4-Oxo-1-Phenyl-1,4-Dihydro-5H-Pyrazolo[3,4-d]Pyrimidin-5-yl)-N-(p-Tolyl) Acetamide]
inhibitory activity on COX-2 [3]: no inhibitory activity | inhibitory activity on COX-1 [4]: no inhibitory activity

Structure (SMILES): COc1ccccc1NC(=O)Cn1cnc2c(cnn2-c2ccccc2)c1=O [Compound 5h, N-(2-Methoxyphenyl)-2-(4-Oxo-1-Phenyl-1,4-Dihydro-5H-Pyrazolo[3,4-d]Pyrimidin-5-yl) Acetamide]
inhibitory activity on COX-2 [3]: no inhibitory activity | inhibitory activity on COX-1 [4]: no inhibitory activity

Structure (SMILES): COc1ccc(NC(=O)Cn2cnc3c(cnn3-c3ccccc3)c2=O)cc1 [Compound 5i, N-(4-Methoxyphenyl)-2-(4-Oxo-1-Phenyl-1,4-Dihydro-5H-Pyrazolo[3,4-d]Pyrimidin-5-yl) Acetamide]
inhibitory activity on COX-2 [3]: no inhibitory activity | inhibitory activity on COX-1 [4]: no inhibitory activity

Structure (SMILES): COc1ccc2c(c1)c(CC(=O)O)c(C)n2C(=O)c1ccc(Cl)cc1 [Indomethacin, indomethacin, reference compound]
Percentage of inhibition of carrageenan-induced paw edema ([1]; 1 h): 15.89% | Percentage of inhibition of carrageenan-induced paw edema ([1]; 2 h): 29.13% | Percentage of inhibition of carrageenan-induced paw edema ([1]; 3 h, 50 mg/kg): 32.33% | Percentage of inhibition of carrageenan-induced paw edema ([1]; 3 h, listed as indomethacin, 50 mg/kg): 32.33%
